Experimental data: BindingDB's records for doi:10.1016/j.bmcl.2009.09.017 (Pfizer, 2009)

Assay: Antagonist activity at P2Y12 receptor in human platelet rich plasma assessed as inhibition of ADP-induced platelet aggregation by light transmission aggregometry

Compound | IC50
CCCCCOC(=O)N1CCN(C(=O)[C@H](CCC(=O)O)NC(=O)c2cc(N3CCC(OCCO)CC3)nc(-c3ccccc3)n2)CC1 [(S)-4-(6-(4-(2-hydroxyethoxy)piperidin-1-yl)-2-phenylpyrimidine-4-carboxamido)-5-oxo-5-(4-(pentyloxycarbonyl)piperazin-1-yl)pentanoic acid] | 1300 nM
CCCCCOC(=O)N1CCN(C(=O)[C@H](CCC(=O)O)NC(=O)c2cc(N3CCC(CNC)CC3)nc(-c3ccccc3)n2)CC1 [(S)-4-(6-(4-((methylamino)methyl)piperidin-1-yl)-2-phenylpyrimidine-4-carboxamido)-5-oxo-5-(4-(pentyloxycarbonyl)piperazin-1-yl)pentanoic acid] | 740 nM
CCCCCOC(=O)N1CCN(C(=O)[C@H](CCC(=O)O)NC(=O)c2cc(N3CCC(CCN4CCCC4)CC3)nc(-c3ccccc3)n2)CC1 [(S)-5-oxo-5-(4-(pentyloxycarbonyl)piperazin-1-yl)-4-(2-phenyl-6-(4-(2-(pyrrolidin-1-yl)ethyl)piperidin-1-yl)pyrimidine-4-carboxamido)pentanoic acid] | 810 nM
CCCCCOC(=O)N1CCN(C(=O)[C@H](CCC(=O)O)NC(=O)c2nc(-c3ccccc3)cc(N3CCC(C(=O)N(CC)CC)CC3)n2)CC1 [(S)-4-(4-(4-(diethylcarbamoyl)piperidin-1-yl)-6-phenylpyrimidine-2-carboxamido)-5-oxo-5-(4-(pentyloxycarbonyl)piperazin-1-yl)pentanoic acid] | 1300 nM
CCCCCOC(=O)N1CCN(C(=O)[C@H](CCC(=O)O)NC(=O)c2cc(OCCCN3CCOCC3)nc(-c3ccccc3)n2)CC1 [(S)-4-(6-(3-morpholinopropoxy)-2-phenylpyrimidine-4-carboxamido)-5-oxo-5-(4-(pentyloxycarbonyl)piperazin-1-yl)pentanoic acid] | 8700 nM
CCCCCOC(=O)N1CCN(C(=O)[C@H](CCC(=O)O)NC(=O)c2cc(N3CCC(CN4CCCC4)CC3)nc(-c3ccccc3)n2)CC1 [(S)-5-oxo-5-(4-(pentyloxycarbonyl)piperazin-1-yl)-4-(2-phenyl-6-(4-(pyrrolidin-1-ylmethyl)piperidin-1-yl)pyrimidine-4-carboxamido)pentanoic acid] | 560 nM
CCCCCOC(=O)N1CCN(C(=O)[C@H](CCC(=O)O)NC(=O)c2cc(N3CCN(C(N)=O)CC3)nc(-c3ccccc3)n2)CC1 [(S)-4-(6-(4-carbamoylpiperazin-1-yl)-2-phenylpyrimidine-4-carboxamido)-5-oxo-5-(4-(pentyloxycarbonyl)piperazin-1-yl)pentanoic acid] | 940 nM
CCCCCOC(=O)N1CCN(C(=O)[C@H](CCC(=O)O)NC(=O)c2cc(N3CCC(C(=O)NCC)CC3)nc(-c3ccccc3)n2)CC1 [(S)-4-(6-(4-(ethylcarbamoyl)piperidin-1-yl)-2-phenylpyrimidine-4-carboxamido)-5-oxo-5-(4-(pentyloxycarbonyl)piperazin-1-yl)pentanoic acid] | 930 nM
CCCCOC(=O)N1CCN(C(=O)[C@H](CCC(=O)O)NC(=O)c2cc(OC3CCN(C(C)C)CC3)nc(-c3ccccc3)n2)CC1 [(S)-5-(4-(butoxycarbonyl)piperazin-1-yl)-4-(6-(1-isopropylpiperidin-4-yloxy)-2-phenylpyrimidine-4-carboxamido)-5-oxopentanoic acid] | 1800 nM
CCCCCOC(=O)N1CCN(C(=O)[C@H](CCC(=O)O)NC(=O)c2nc(NC3CCN(C(C)C)CC3)cc(-c3ccccc3)n2)CC1 [(S)-4-(4-(1-isopropylpiperidin-4-ylamino)-6-phenylpyrimidine-2-carboxamido)-5-oxo-5-(4-(pentyloxycarbonyl)piperazin-1-yl)pentanoic acid] | > 10000 nM
CCCCOC(=O)N1CCN(C(=O)[C@H](CCC(=O)O)NC(=O)c2cc(N3CCC(C(=O)N(CC)CC)CC3)nc(-c3ccccc3)n2)CC1 [(S)-5-(4-(butoxycarbonyl)piperazin-1-yl)-4-(6-(4-(diethylcarbamoyl)piperidin-1-yl)-2-phenylpyrimidine-4-carboxamido)-5-oxopentanoic acid] | 280 nM
CCCCCOC(=O)N1CCN(C(=O)[C@H](CCC(=O)O)NC(=O)c2nc(-c3ccccc3)cc(N3CCC(C(N)=O)CC3)n2)CC1 [(S)-4-(4-(4-carbamoylpiperidin-1-yl)-6-phenylpyrimidine-2-carboxamido)-5-oxo-5-(4-(pentyloxycarbonyl)piperazin-1-yl)pentanoic acid] | 2300 nM
CCCCOC(=O)N1CCN(C(=O)[C@H](CCC(=O)O)NC(=O)c2cc(N3CCC(C(=O)N(C)C)CC3)nc(-c3ccccc3)n2)CC1 [(S)-5-(4-(butoxycarbonyl)piperazin-1-yl)-4-(6-(4-(dimethylcarbamoyl)piperidin-1-yl)-2-phenylpyrimidine-4-carboxamido)-5-oxopentanoic acid] | 1500 nM
CCCCCOC(=O)N1CCN(C(=O)[C@H](CCC(=O)O)NC(=O)c2cc(N3CCC(N)CC3)nc(-c3ccccc3)n2)CC1 [(S)-4-(6-(4-aminopiperidin-1-yl)-2-phenylpyrimidine-4-carboxamido)-5-oxo-5-(4-(pentyloxycarbonyl)piperazin-1-yl)pentanoic acid] | 720 nM
CCCCCOC(=O)N1CCN(C(=O)[C@H](CCC(=O)O)NC(=O)c2cc(SCC(F)(F)F)nc(-c3ccccc3)n2)CC1 [(S)-5-oxo-5-(4-(pentyloxycarbonyl)piperazin-1-yl)-4-(2-phenyl-6-(2,2,2-trifluoroethylthio)pyrimidine-4-carboxamido)pentanoic acid] | > 10000 nM
CCCCCOC(=O)N1CCN(C(=O)[C@H](CCC(=O)O)NC(=O)c2cc(N3CCC(OC)CC3)nc(-c3ccccc3)n2)CC1 [(S)-4-(6-(4-methoxypiperidin-1-yl)-2-phenylpyrimidine-4-carboxamido)-5-oxo-5-(4-(pentyloxycarbonyl)piperazin-1-yl)pentanoic acid] | 2700 nM
CCCCOC(=O)N1CCN(C(=O)[C@H](CCC(=O)O)NC(=O)c2cc(OCC3CCNCC3)nc(-c3ccccc3)n2)CC1 [(S)-5-(4-(butoxycarbonyl)piperazin-1-yl)-5-oxo-4-(2-phenyl-6-(piperidin-4-ylmethoxy)pyrimidine-4-carboxamido)pentanoic acid] | 1200 nM
CCCCCOC(=O)N1CCN(C(=O)[C@H](CCC(=O)O)NC(=O)c2nc(OCC3CCNCC3)cc(-c3ccccc3)n2)CC1 [(S)-5-oxo-5-(4-(pentyloxycarbonyl)piperazin-1-yl)-4-(4-phenyl-6-(piperidin-4-ylmethoxy)pyrimidine-2-carboxamido)pentanoic acid] | 9400 nM
CCCCCOC(=O)N1CCN(C(=O)[C@H](CCC(=O)O)NC(=O)c2nc(-c3ccccc3)cc(N3CCN(CCOC)CC3)n2)CC1 [(S)-4-(4-(4-(2-methoxyethyl)piperazin-1-yl)-6-phenylpyrimidine-2-carboxamido)-5-oxo-5-(4-(pentyloxycarbonyl)piperazin-1-yl)pentanoic acid] | 5100 nM
CCCCCOC(=O)N1CCN(C(=O)[C@H](CCC(=O)O)NC(=O)c2nc(-c3ccccc3)cc(N3CCC(COC)CC3)n2)CC1 [(S)-4-(4-(4-(methoxymethyl)piperidin-1-yl)-6-phenylpyrimidine-2-carboxamido)-5-oxo-5-(4-(pentyloxycarbonyl)piperazin-1-yl)pentanoic acid] | 6800 nM
CCCCCOC(=O)N1CCN(C(=O)[C@H](CCC(=O)O)NC(=O)c2cc(N3CCC(CN(CC)CC)CC3)nc(-c3ccccc3)n2)CC1 [(4S)-4-[(6-{4-[(diethylamino)methyl]piperidin-1-yl}-2-phenylpyrimidin-4-yl)formamido]-5-oxo-5-{4-[(pentyloxy)carbonyl]piperazin-1-yl}pentanoic acid] | 860 nM
CCCCCOC(=O)N1CCN(C(=O)[C@H](CCC(=O)O)NC(=O)c2nc(NCCCN(C)C)cc(-c3ccccc3)n2)CC1 [(S)-4-(4-(3-(dimethylamino)propylamino)-6-phenylpyrimidine-2-carboxamido)-5-oxo-5-(4-(pentyloxycarbonyl)piperazin-1-yl)pentanoic acid] | > 10000 nM
CCCCOC(=O)N1CCN(C(=O)[C@H](CCC(=O)O)NC(=O)c2cc(N3CCC(N4CCCC4)CC3)nc(-c3ccccc3)n2)CC1 [(S)-5-(4-(butoxycarbonyl)piperazin-1-yl)-5-oxo-4-(2-phenyl-6-(4-(pyrrolidin-1-yl)piperidin-1-yl)pyrimidine-4-carboxamido)pentanoic acid] | 660 nM
CCCCCOC(=O)N1CCN(C(=O)[C@H](CCC(=O)O)NC(=O)c2nc(-c3ccccc3)cc(N3CCC(CCOC)CC3)n2)CC1 [(S)-4-(4-(4-(2-methoxyethyl)piperidin-1-yl)-6-phenylpyrimidine-2-carboxamido)-5-oxo-5-(4-(pentyloxycarbonyl)piperazin-1-yl)pentanoic acid] | > 10000 nM
CCCCCOC(=O)N1CCN(C(=O)[C@H](CCC(=O)O)NC(=O)c2nc(-c3ccccc3)cc(N3CCC(CCN4CCCC4)CC3)n2)CC1 [(S)-5-oxo-5-(4-(pentyloxycarbonyl)piperazin-1-yl)-4-(4-phenyl-6-(4-(2-(pyrrolidin-1-yl)ethyl)piperidin-1-yl)pyrimidine-2-carboxamido)pentanoic acid] | 1700 nM
CCCCCOC(=O)N1CCN(C(=O)[C@H](CCC(=O)O)NC(=O)c2cc(N3CCC(CCN)CC3)nc(-c3ccccc3)n2)CC1 [(S)-4-(6-(4-(2-aminoethyl)piperidin-1-yl)-2-phenylpyrimidine-4-carboxamido)-5-oxo-5-(4-(pentyloxycarbonyl)piperazin-1-yl)pentanoic acid] | 620 nM
CCCCCOC(=O)N1CCN(C(=O)[C@H](CCC(=O)O)NC(=O)c2nc(-c3ccccc3)cc(N3CCC(N)CC3)n2)CC1 [(S)-4-(4-(4-aminopiperidin-1-yl)-6-phenylpyrimidine-2-carboxamido)-5-oxo-5-(4-(pentyloxycarbonyl)piperazin-1-yl)pentanoic acid] | 2700 nM
CCCCCOC(=O)N1CCN(C(=O)[C@H](CCC(=O)O)NC(=O)c2cc(N3CCC(CC(=O)N4CCC4)CC3)nc(-c3ccccc3)n2)CC1 [(S)-4-(6-(4-(2-(azetidin-1-yl)-2-oxoethyl)piperidin-1-yl)-2-phenylpyrimidine-4-carboxamido)-5-oxo-5-(4-(pentyloxycarbonyl)piperazin-1-yl)pentanoic acid] | 1000 nM
